The experiment addresses T1, BTK (Homo sapiens, UniProt Q06187).
T1 construct: purchased Upstate 14-552
In words: In vitro BTK kinase assay: BTK-POLYGAT-LS ASSAY. The format is biochemical. The settings on record: ATP 10 uM. The method, boiled down: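 BTK phosphorylation of polyGAT (100 nM final) with ATP at 10 μM final, 10 mM Tris-HCl pH 7.5 kinase buffer, quenched by EDTA after 30 min. Potency given as IC50.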

Each structure is given as a SMILES string.

T1 sequence (Q06187 whole entry): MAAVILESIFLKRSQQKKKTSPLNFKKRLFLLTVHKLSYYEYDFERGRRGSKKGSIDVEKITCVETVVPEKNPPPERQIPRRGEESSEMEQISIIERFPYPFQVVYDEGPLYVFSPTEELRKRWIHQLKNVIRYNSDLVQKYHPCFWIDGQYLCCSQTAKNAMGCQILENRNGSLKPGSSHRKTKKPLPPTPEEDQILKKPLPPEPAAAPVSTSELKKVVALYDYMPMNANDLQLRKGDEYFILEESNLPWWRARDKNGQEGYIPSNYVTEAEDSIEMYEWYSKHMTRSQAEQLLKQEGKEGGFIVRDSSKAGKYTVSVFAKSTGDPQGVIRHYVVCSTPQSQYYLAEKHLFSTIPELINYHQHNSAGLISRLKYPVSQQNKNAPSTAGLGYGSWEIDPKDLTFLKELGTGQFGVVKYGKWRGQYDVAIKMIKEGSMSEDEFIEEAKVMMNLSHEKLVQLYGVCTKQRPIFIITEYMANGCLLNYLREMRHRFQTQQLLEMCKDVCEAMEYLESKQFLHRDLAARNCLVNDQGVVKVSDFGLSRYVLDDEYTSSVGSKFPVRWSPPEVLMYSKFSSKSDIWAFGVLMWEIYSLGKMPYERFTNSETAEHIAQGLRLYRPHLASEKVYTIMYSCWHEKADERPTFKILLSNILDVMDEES

On to `O=C(CNc1c(F)cccc1F)N[C@@H]1CCCN(c2ncnc3[nH]ccc23)C1` [Example 321], for which the half-inhibitory concentration (IC50) was 100 to 999 nM.
The compound `COc1cccc(NCC(=O)N[C@@H]2CCCN(c3ncnc4[nH]ccc34)C2)c1` [Example 322] yielded an IC50 of 100 to 999 nM.
`O=C(CNc1ccccc1)N(CCN1CCOCC1)C1CCCN(c2ncnc3[nH]ccc23)C1` (stereo not drawn) [Example 323] displayed an IC50 of 100 to 999 nM.
The same measure for `O=C(CNc1cccc2c1CCC2)N[C@@H]1CCCN(c2ncnc3[nH]ccc23)C1` [Example 324]: 100 to 999 nM.
The same measure for `NC(=O)c1c(N)ncnc1N1CCC[C@@H](NC(=O)CNc2cc(Cl)cc(Cl)c2)C1` [Example 326]: 100 to 999 nM; for `COc1cc(NCC(=O)N[C@@H]2CCCN(c3ncnc4[nH]ccc34)C2)cc(C(F)(F)F)c1` [Example 327]: 100 to 999 nM.
Compound `O=C(CNc1cccc2nccn12)NC1CCCN(c2ncnc3[nH]ccc23)C1` (stereo not drawn) [Example 328] came in with an IC50 above 10000 nM.
For `O=C(CNc1cccc2ccncc12)NC1CCCN(c2ncnc3[nH]ccc23)C1` (stereo not drawn) [Example 329], the IC50 was above 10000 nM.
`O=C(CNC(=O)N1CCCCC1)NC1CCCN(c2ncnc3[nH]ccc23)C1` (stereo not drawn) [Example 330] gave an IC50 above 10000 nM.
Compound `CC(C)n1ccc(NCC(=O)NC2CCCN(c3ncnc4[nH]ccc34)C2)n1` (stereo not drawn) [Example 331] showed an IC50 above 10000 nM.
Regarding `O=C(CNc1cccc2ncccc12)NC1CCCN(c2ncnc3[nH]ccc23)C1` (stereo not drawn) [Example 332], the IC50 was above 10000 nM.
As for `O=C(CNc1cccc2cnccc12)NC1CCCN(c2ncnc3[nH]ccc23)C1` (stereo not drawn) [Example 333], the IC50 lay in the range of 1000 to 10000 nM.
As to `O=C(CNc1cccc(C(F)(F)F)n1)NC1CCCN(c2ncnc3[nH]ccc23)C1` (stereo not drawn) [Example 334], the half-maximal inhibitory concentration (IC50) lay in the range of 1000 to 10000 nM.
As to `O=C(CNc1ccc2c(c1)OCO2)NC1CCCN(c2nccc3[nH]ccc23)C1` (stereo not drawn) [Example 335], the IC50 is above 10000 nM.
The same measure for `O=C(CNc1cccc2c1OCCO2)NC1CCCN(c2ncnc3[nH]ccc23)C1` (stereo not drawn) [Example 336]: above 10000 nM; for `O=C(CNc1cccc(N2CCNC2=O)c1)NC1CCCN(c2ncnc3[nH]ccc23)C1` (stereo not drawn) [Example 337]: above 10000 nM; for `O=C(CNc1cccc(N2CCCC2=O)c1)NC1CCCN(c2ncnc3[nH]ccc23)C1` (stereo not drawn) [Example 338]: 1000 to 10000 nM.
As to `CNC(=O)c1cccc(NCC(=O)NC2CCCN(c3ncnc4[nH]ccc34)C2)c1` (stereo not drawn) [Example 339], the IC50 is above 10000 nM.
Compound `COc1cccc(NCC(=O)NC2CCCN(c3nccc4[nH]ccc34)C2)c1OC` (stereo not drawn) [Example 340] showed an IC50 above 10000 nM.
Take `CC(O)c1cccc(NCC(=O)NC2CCCN(c3ncnc4[nH]ccc34)C2)c1` (stereo not drawn) [Example 341]: the half-maximal inhibitory concentration (IC50) was above 10000 nM.
With `Cn1cccc(NCC(=O)NC2CCCN(c3ncnc4[nH]ccc34)C2)c1=O` (stereo not drawn) [Example 342], the IC50 is above 10000 nM.
Regarding `CN1CCN(c2cccc(NCC(=O)NC3CCCN(c4ncnc5[nH]ccc45)C3)c2)CC1` (stereo not drawn) [Example 343], the IC50 was above 10000 nM.
On to `CNC(=O)c1cnc(NC2CCCN(c3ncnc4[nH]ccc34)C2)s1` (stereo not drawn) [Example 344], for which the IC50 was above 10000 nM.
Turning to `CN(C)Cc1cccc(NCC(=O)NC2CCCN(c3ncnc4[nH]ccc34)C2)c1` (stereo not drawn) [Example 345], the half-inhibitory concentration (IC50) is above 10000 nM.
For `O=C(CNc1cccc(CN2CCCCC2)c1)NC1CCCN(c2ncnc3[nH]ccc23)C1` (stereo not drawn) [Example 346], the IC50 is above 10000 nM.
The same measure for `Cc1cc(NCC(=O)NC2CCCN(c3ncnc4[nH]ccc34)C2)n(C)n1` (stereo not drawn) [Example 347]: above 10000 nM.
In turn, `COc1ccc(NCC(=O)NC2CCCN(c3ncnc4[nH]ccc34)C2)cc1` (stereo not drawn) [Example 348] returned an IC50 above 10000 nM.
In the case of `O=C(CNc1cccc(-c2nnco2)c1)NC1CCCN(c2ncnc3[nH]ccc23)C1` (stereo not drawn) [Example 349], the IC50 was above 10000 nM.
For `Cc1cc(NCC(=O)NC2CCCN(c3ncnc4[nH]ccc34)C2)on1` (stereo not drawn) [Example 350], the IC50 is above 10000 nM.
Compound `Cn1nc(-c2ccccc2)cc1NCC(=O)NC1CCCN(c2ncnc3[nH]ccc23)C1` (stereo not drawn) [Example 351] came in with an IC50 above 10000 nM.
On to `O=C(CNc1ccccn1)NC1CCCN(c2ncnc3[nH]ccc23)C1` (stereo not drawn) [Example 352], for which the IC50 lay in the range of 1000 to 10000 nM.
Regarding `O=C(CNc1ccncc1)NC1CCCN(c2ncnc3[nH]ccc23)C1` (stereo not drawn) [Example 353], the IC50 is above 10000 nM.
As for `O=C(CNC1CCCCC1)NC1CCCN(c2ncnc3[nH]ccc23)C1` (stereo not drawn) [Example 354], the IC50 was above 10000 nM.
For `O=C(CNC1CCc2ccccc21)NC1CCCN(c2ncnc3[nH]ccc23)C1` (stereo not drawn) [Example 355], the IC50 is above 10000 nM.
`O=C(CNC1CCCc2ccccc21)NC1CCCN(c2ncnc3[nH]ccc23)C1` (stereo not drawn) [Example 356] gave an IC50 above 10000 nM.
`O=C(CNCC1CCCCC1)NC1CCCN(c2ncnc3[nH]ccc23)C1` (stereo not drawn) [Example 357]: the IC50 was above 10000 nM.
In turn, `CC(=O)Nc1cccc(NCC(=O)NC2CCCN(c3ncnc4[nH]ccc34)C2)c1` (stereo not drawn) [Example 358] had an IC50 above 10000 nM.
The figure for `O=C(CNc1ccccc1)N[C@H]1CCN(c2ncnc3[nH]ccc23)C1` [Example 359] is above 10000 nM; for `O=C(CNc1ccccc1)N[C@@H]1CCN(c2ncnc3[nH]ccc23)C1` [Example 360] it is above 10000 nM.
For `O=C(NC1CCCN(c2ncnc3[nH]ccc23)C1)C1NCc2ccccc21` (stereo not drawn) [Example 361], the IC50 is above 10000 nM.
For the compound `O=C(NC1CCCN(c2ncnc3[nH]ccc23)C1)c1cc2ccccc2[nH]1` (stereo not drawn) [Example 362], the IC50 was 1000 to 10000 nM.
With `O=C(CNC1CCCN(c2ncnc3[nH]ccc23)C1)Nc1ccccc1` (stereo not drawn) [Example 363], the 50% inhibitory concentration (IC50) is above 10000 nM.
The figure for `O=C(NC1CCCCN(c2ncnc3[nH]ncc23)C1)[C@H](Nc1cc(Cl)cc(Cl)c1)C1CC1` (stereo partly drawn) [Example 364] is below 100 nM; for `CC[C@H](C)[C@@H](Nc1cc(F)cc(Cl)c1)C(=O)N[C@H]1CN(c2ncnc3[nH]ncc23)CC[C@@H]1C` [Example 365] it is below 100 nM; for `C[C@H]1CCN(c2ncnc3[nH]ncc23)C[C@@H]1NC(=O)CNc1ccccc1S(=O)(=O)N1CCCCC1` [Example 366] it is below 100 nM.
On to `CC(C)Oc1ccccc1NCC(=O)N[C@@H]1CCCN(c2ncnc3[nH]ncc23)C1` [Example 367], for which the IC50 was 100 to 999 nM.
The same measure for `CN(C(C)(C)C)S(=O)(=O)c1ccccc1NCC(=O)N[C@@H]1CCCN(c2ncnc3[nH]ncc23)C1` [Example 368]: 100 to 999 nM; for `CC[C@@H](Nc1cc(Cl)cc(Cl)c1)C(=O)N[C@H]1CN(c2ncnc3[nH]ncc23)CC[C@@H]1C` [Example 369]: 100 to 999 nM; for `CC1CCCN(S(=O)(=O)c2ccccc2NCC(=O)N[C@@H]2CCCN(c3ncnc4[nH]ncc34)C2)C1` (stereo partly drawn) [Example 370]: below 100 nM.
The same measure for `CCC[C@@H](Nc1cccc2c1OC(F)(F)O2)C(=O)N[C@@H]1CCCN(c2ncnc3[nH]ncc23)C1` [Example 371]: 100 to 999 nM.
`CC1CN(S(=O)(=O)c2ccccc2NCC(=O)N[C@@H]2CCCN(c3ncnc4[nH]ncc34)C2)CC(C)O1` (stereo partly drawn) [Example 372] came in with an IC50 of 100 to 999 nM.
For `O=C([C@H](Nc1cc(F)cc(Cl)c1)C1CC1)N1CCCCC12CCCN(c1ncnc3[nH]ncc13)C2` (stereo partly drawn) [Example 373], the IC50 lay within 1000 to 10000 nM.
The same measure for `O=C(CNc1ccccc1C(=O)N1CCOCC1)N[C@@H]1CCCN(c2ncnc3[nH]ccc23)C1` [Example 374]: 100 to 999 nM; for `CN(C)S(=O)(=O)c1ccccc1NCC(=O)N[C@@H]1CCCN(c2ncnc3[nH]ncc23)C1` [Example 375]: 100 to 999 nM; for `CCC[C@@H](Nc1ccccc1C(C)C)C(=O)N[C@@H]1CCCN(c2ncnc3[nH]ncc23)C1` [Example 376]: 100 to 999 nM.
In turn, `CN1CCN(S(=O)(=O)c2ccccc2NCC(=O)N[C@@H]2CCCN(c3ncnc4[nH]ccc34)C2)CC1` [Example 377] showed a 50% inhibitory concentration (IC50) of 1000 to 10000 nM.
Consider `CC1CN(S(=O)(=O)c2ccccc2NCC(=O)N[C@@H]2CCCN(c3ncnc4[nH]ccc34)C2)CC(C)O1` (stereo partly drawn) [Example 378], for which the IC50 is 100 to 999 nM.
The figure for `O=C([C@H](Nc1cc(F)cc(Cl)c1)C1CC1)N1CCCCC12CCCN(c1ncnc3[nH]ccc13)C2` (stereo partly drawn) [Example 379] is 1000 to 10000 nM; for `O=C(CNc1ccccc1OCC1CC1)N[C@@H]1CCCN(c2ncnc3[nH]ncc23)C1` [Example 380] it is 100 to 999 nM; for `O=C(CNc1ccccc1-n1cccn1)N[C@@H]1CCCN(c2ncnc3[nH]ccc23)C1` [Example 381] it is 1000 to 10000 nM.
`Cc1cc(NCC(=O)N[C@@H]2CCCN(c3ncnc4[nH]ccc34)C2)cc(OC(F)(F)F)c1` [Example 382]: the IC50 was below 100 nM.
On to `O=C(CNc1cc(Cl)cc(OC(F)(F)F)c1)N[C@@H]1CCCN(c2ncnc3[nH]ccc23)C1` [Example 383], for which the IC50 was below 100 nM.
The same measure for `CC(C)(C)Oc1ccccc1NCC(=O)N[C@@H]1CCCN(c2ncnc3[nH]ccc23)C1` [Example 384]: 100 to 999 nM; for `O=C(CNc1cc(F)cc(Cl)c1)N[C@@H]1CCCN(c2ncnc3[nH]ncc23)C1` [Example 385]: below 100 nM.
Consider `Cc1ccc(F)c(NCC(=O)N[C@@H]2CCCN(c3ncnc4[nH]ccc34)C2)c1` [Example 386], for which the IC50 fell in the range of 100 to 999 nM.
`O=C(N[C@@H]1CCCN(c2ncnc3[nH]ccc23)C1)C(Nc1cc(F)cc(Cl)c1)C1COC1` (stereo partly drawn) [Example 387] had an IC50 of 1000 to 10000 nM.
For `O=C(O)Cc1cccc(NCC(=O)N[C@@H]2CCCN(c3ncnc4[nH]ccc34)C2)c1` [Example 389], the IC50 lay within 1000 to 10000 nM.
In the case of `O=C(CNc1cccc(-c2nnco2)c1)N[C@@H]1CCCN(c2ncnc3[nH]ccc23)C1` [Example 390], the IC50 is 1000 to 10000 nM.
`O=C(N[C@@H]1CCCN(c2ncnc3[nH]ccc23)C1)[C@@H](CC1CC1)Nc1cccc(Cl)c1` [Example 391] came in with an IC50 of 1000 to 10000 nM.
`O=C(N[C@@H]1CCCN(c2ncnc3[nH]cc(F)c23)C1)[C@H](Nc1cc(Cl)cc(Cl)c1)C1CC1` [Example 392] returned a half-maximal inhibitory concentration (IC50) of 1000 to 10000 nM.
Compound `O=C(N[C@@H]1CCCN(c2ncnc3[nH]ccc23)C1)[C@@H](CC1CC1)Nc1cc(F)cc(Cl)c1` [Example 393] registered an IC50 of 1000 to 10000 nM.
The same measure for `O=C(CNc1cccc(CO)c1)N[C@@H]1CCCN(c2ncnc3[nH]ccc23)C1` [Example 394]: 1000 to 10000 nM.

One may read the IC50 as the point on the concentration scale where inhibition reaches its midpoint. Low readings indicate inhibition by little substance, high ones a need for much substance.

Values taken from patent US9029359B2, “Heteroaryl Btk inhibitors” (Biogen Idec MA, Inc., priority 2009, dated 2015).
